Experimental data as given in the NIST ThermoML archive (doi:10.1016/j.tca.2009.06.015).

Legend:
[1] = xn = mol fraction of the nth substance listed; conditions: 101 kPa, Liquid; for viscosity: Capillary tube (Ostwald / Ubbelohde) method; for mass density: Vibrating tube method
[2] = refractive index (Na D-line) (dimensionless); xn = mol fraction of the nth substance listed; conditions: 101 kPa, Liquid, Standard Abbe refractometry

CCCC(C)O (configuration not stated) [pentan-2-ol] + CC#N
Conditions | mass density, [1] [kg/m3] | refractive index, [2] | viscosity, [1] [mPa·s]
293.15 K, x2 = 0 | 809.29 | 1.406 | 4.298
293.15 K, x2 = 0.116 | 806.75 | 1.4035 | 2.544
293.15 K, x2 = 0.1727 | 805.46 | 1.402 | 2.093
293.15 K, x2 = 0.2827 | 802.79 | 1.3981 | 1.534
293.15 K, x2 = 0.3546 | 801.01 | 1.3951 | 1.262
293.15 K, x2 = 0.4458 | 798.66 | 1.3908 | 1.008
293.15 K, x2 = 0.5366 | 796.26 | 1.3858 | 0.81
293.15 K, x2 = 0.6488 | 793.09 | 1.3779 | 0.6391
293.15 K, x2 = 0.7671 | 789.52 | 1.3674 | 0.5048
293.15 K, x2 = 0.8793 | 786.03 | 1.3561 | 0.4119
293.15 K, x2 = 0.9578 | 783.59 | 1.3478 | 0.3705
298.15 K, x2 = 0 | 805.24 | 1.4045 | 3.478
298.15 K, x2 = 0.116 | 802.61 | 1.4012 | 2.17
298.15 K, x2 = 0.1727 | 801.25 | 1.3999 | 1.804
298.15 K, x2 = 0.2827 | 798.55 | 1.3965 | 1.362
298.15 K, x2 = 0.3546 | 796.68 | 1.3941 | 1.125
298.15 K, x2 = 0.4458 | 794.17 | 1.3901 | 0.9044
298.15 K, x2 = 0.5366 | 791.6 | 1.3848 | 0.7392
298.15 K, x2 = 0.6488 | 788.28 | 1.3764 | 0.5884
298.15 K, x2 = 0.7671 | 784.54 | 1.3657 | 0.4715
298.15 K, x2 = 0.8793 | 780.88 | 1.3548 | 0.391
298.15 K, x2 = 0.9578 | 778.28 | 1.3461 | 0.3537
303.15 K, x2 = 0 | 801.13 | 1.3724 | –
303.15 K, x2 = 0.116 | 798.39 | 1.3715 | 1.474
303.15 K, x2 = 0.1727 | 796.93 | 1.3707 | 1.288
303.15 K, x2 = 0.2827 | 794.05 | 1.3694 | 1.069
303.15 K, x2 = 0.3546 | 792.08 | 1.3684 | 0.9367
303.15 K, x2 = 0.4458 | 789.54 | 1.3666 | 0.7975
303.15 K, x2 = 0.5366 | 786.91 | 1.3641 | 0.6615
303.15 K, x2 = 0.6488 | 783.41 | 1.3608 | 0.5492
303.15 K, x2 = 0.7671 | 779.52 | 1.3561 | 0.4429
303.15 K, x2 = 0.8793 | 775.68 | 1.35 | 0.3617
303.15 K, x2 = 0.9578 | 772.96 | 1.3433 | 0.3311
308.15 K, x2 = 0 | 796.94 | 1.3703 | –
308.15 K, x2 = 0.116 | 794.1 | 1.3694 | 1.296
308.15 K, x2 = 0.1727 | 792.65 | 1.3687 | 1.15
308.15 K, x2 = 0.2827 | 789.63 | 1.3679 | 0.9576
308.15 K, x2 = 0.3546 | 787.6 | 1.367 | 0.846
308.15 K, x2 = 0.4458 | 784.92 | 1.3657 | 0.7168
308.15 K, x2 = 0.5366 | 782.17 | 1.3637 | 0.6057
308.15 K, x2 = 0.6488 | 778.55 | 1.3605 | 0.5051
308.15 K, x2 = 0.7671 | 774.47 | 1.3557 | 0.4111
308.15 K, x2 = 0.8793 | 770.45 | 1.3491 | 0.3442
308.15 K, x2 = 0.9578 | 767.48 | 1.3417 | 0.3202

CCC(C)O (configuration not stated) [butan-2-ol] + CC#N
Conditions | mass density, [1] [kg/m3] | refractive index, [2] | viscosity, [1] [mPa·s]
293.15 K, x2 = 0 | 806.57 | 1.3966 | 3.912
293.15 K, x2 = 0.0844 | 804.53 | 1.3952 | 2.503
293.15 K, x2 = 0.1644 | 802.5 | 1.393 | 1.654
293.15 K, x2 = 0.2516 | 800.41 | 1.3899 | 1.376
293.15 K, x2 = 0.3369 | 798.33 | 1.386 | 1.089
293.15 K, x2 = 0.4444 | 795.68 | 1.3804 | 0.8564
293.15 K, x2 = 0.5382 | 793.35 | 1.3751 | 0.6953
293.15 K, x2 = 0.6425 | 790.7 | 1.3686 | 0.5565
293.15 K, x2 = 0.761 | 788.1 | 1.361 | 0.4636
293.15 K, x2 = 0.8715 | 785.92 | 1.3534 | 0.3984
293.15 K, x2 = 0.9588 | 783.48 | 1.3467 | 0.3663
298.15 K, x2 = 0 | 802.56 | 1.3946 | 3.132
298.15 K, x2 = 0.0844 | 800.28 | 1.3918 | 2.135
298.15 K, x2 = 0.1644 | 798.07 | 1.3893 | 1.574
298.15 K, x2 = 0.2516 | 795.79 | 1.3865 | 1.218
298.15 K, x2 = 0.3369 | 793.63 | 1.383 | 0.992
298.15 K, x2 = 0.4444 | 790.96 | 1.3782 | 0.7937
298.15 K, x2 = 0.5382 | 788.5 | 1.3734 | 0.6498
298.15 K, x2 = 0.6425 | 785.67 | 1.3674 | 0.518
298.15 K, x2 = 0.761 | 782.65 | 1.3597 | 0.4216
298.15 K, x2 = 0.8715 | 779.99 | 1.3518 | 0.3868
298.15 K, x2 = 0.9588 | 777.71 | 1.3448 | 0.3632
303.15 K, x2 = 0 | 798.26 | 1.3924 | 2.534
303.15 K, x2 = 0.0844 | 795.95 | 1.3902 | 1.794
303.15 K, x2 = 0.1644 | 793.74 | 1.3886 | 1.383
303.15 K, x2 = 0.2516 | 791.38 | 1.386 | 1.082
303.15 K, x2 = 0.3369 | 789.07 | 1.3829 | 0.8873
303.15 K, x2 = 0.4444 | 786.17 | 1.3779 | 0.7129
303.15 K, x2 = 0.5382 | 783.62 | 1.3722 | 0.5936
303.15 K, x2 = 0.6425 | 780.73 | 1.3656 | 0.4865
303.15 K, x2 = 0.761 | 777.45 | 1.3575 | 0.4019
303.15 K, x2 = 0.8715 | 774.43 | 1.3495 | 0.3612
303.15 K, x2 = 0.9588 | 772.05 | 1.3426 | 0.3414
308.15 K, x2 = 0 | 793.96 | 1.3905 | 2.172
308.15 K, x2 = 0.0844 | 791.55 | 1.3876 | 1.572
308.15 K, x2 = 0.1644 | 789.27 | 1.3853 | 1.213
308.15 K, x2 = 0.2516 | 786.77 | 1.3825 | 0.9642
308.15 K, x2 = 0.3369 | 784.37 | 1.3799 | 0.8021
308.15 K, x2 = 0.4444 | 781.35 | 1.3753 | 0.6524
308.15 K, x2 = 0.5382 | 778.69 | 1.3713 | 0.5479
308.15 K, x2 = 0.6425 | 775.68 | 1.3659 | 0.4533
308.15 K, x2 = 0.761 | 772.27 | 1.3592 | 0.379
308.15 K, x2 = 0.8715 | 768.99 | 1.351 | 0.3437
308.15 K, x2 = 0.9588 | 766.51 | 1.3423 | 0.3238
